Assay results reported in patent US8252814B2, “Agents and crystals for improving excretory potency of urinary bladder” (priority 1998, dated 2012).
Marks after values point to notes of the source that are not given here.

Legend:
urinary bladder = assay: Potentiation effect for rhythmic contraction of urinary bladder in guinea pig, Experimental Example 2; assay type: in vivo, Hartley male guinea pigs; details: Cavia porcellus, iv, read-out: AUC200 (mg/kg, i.v.)
Method: Potentiation effect of the compounds disclosed in Reference Examples for rhythmic contraction of urinary bladder was examined using Hartley male guinea pigs. Hartley male guinea pigs (SLC) weighing about 300 g were anesthetized with urethane (1.2 g/kg, i.p.), held, and incised at the midline of abdomen to expose the bladder. The urethra was ligated, and a polyethylene tube (PE-50) was inserted into the bladder. The internal pressure of the bladder was measured with a blood pressure amplifier (Nippon Koden), and the data was collected on a personal computer through an A/D converter (MP-30, Biopac Systems). A proper amount of physiological saline was injected into the bladder through a cannula to induce rhythmic contraction of the to bladder.
The area (AUC) that is formed by a curve of the internal pressure of the bladder and a base line was calculated through analytical software (Studentlab pro 2.1.5, Biopac Systems) to evaluate the effect of the test compounds. The curve of the internal pressure is made based on the bladder contraction immediately before administration of the test compound and the first contraction 5 minutes after the administration. From the dose-dependent curve of AUC, the dose at which AUC before drug administration was increased 2 times (AUC200) was calculated to determine potency of contraction-enhancing effect of the test compounds for the muscle of urinary bladder. In addition, the potency of contraction-enhancing effect of […] for the muscle of bladder was determined in the same manner as mentioned above.

guinea pigs [1] = assay: Effect on urination efficiency in guinea pigs, Experimental Example 3; assay type: in vivo, Hartley male guinea pigs; details: for Efficiency of Urination (%) Before adm. / Efficiency of Urination (%) After adm. / Improvement of Efficiency (%): guinea pig; for Efficiency of Urination (%) Before adm.: before administration; for Efficiency of Urination (%) After adm. / Improvement of Efficiency (%): 30 minutes after administration
From the text: Effect of the compounds of Reference Examples on urination efficiency was examined using Hartley male guinea pigs. Six to ten Hartley male guinea pigs weighing 346.5±3.5 g (SLC) were employed in each treated group. Guinea pigs were anesthetized with urethane, and held, and the bladder was exposed. Two polyethylene tubes (PE-50 and PE-100) were inserted into the bladder. One (PE-50) of the tubes was used in infusion of physiological saline, and the other (PE-100) was used for measurement of the internal pressure of the bladder. Saline was infused continuously at a flow rate of 0.3 mL/min. The infusion was stopped at the time when intermittent urination was confirmed at least 3 times, and the whole saline in bladder was removed. Again, infusion was started, and stopped at the time when a rise of the pressure in bladder was confirmed immediately before urination, and the time required for infusion and the weight of excreted urine were measured. Efficiency of urination was calculated from the following equation. Efficiency of urination (%)=100×Excreted volume (mL)/Infusion time (min)×0.3 (mL/min)
Measurement was made at least 2 times before administration of the test compound, and then the test compound was dissolved in distilled water and administered intravenously. […] Effect by administration of solvents was also confirmed.
The average measured value before administration of the test compounds was regarded as the value before administration, and applied to the paired-t test for a significant difference test with the value after the administration. (** p<0.01, * p<0.05)

[2] = biological target: T1, acetylcholinesterase of human erythrocyte origin (Homo sapiens, UniProt P22303); assay: Measurement of acetylcholinesterase-inhibiting action (acetylthiocholine / Ellman method), Experimental Example 1; assay type: biochemical; details: at least 3 experiments
T1 construct: Acetylcholinesterase of human erythrocyte origin (Sigma Chemical Co.); purchased Sigma Chemical Co; host or cells: human erythrocytes (natural source)
Method: Acetylcholinesterase-inhibiting action of the compounds disclosed in Reference Examples was measured using acetylcholinesterase of human erythrocyte origin according to the acetylthiocholine method (Ellman method).
Acetylcholinesterase of human erythrocyte origin (Sigma Chemical Co.) was dissolved in distilled water at a concentration of 0.2 IU/mL to give an enzyme authentic sample. To a 96-well microplate was dispensed 20 μL of drug solution, 30 μL of 80 mM Tris-HCl (pH 7.4), 50 μL of enzyme authentic sample and 50 μL of 5 mM 5,5-dithio-bis(2-nitrobenzoic acid) (Sigma Chemical Co.), and the plate was shaken for 10 seconds. Then, 50 μL of acetylthiocholine iodide (Sigma Chemical Co.) was added, and the plate was again shaken. Immediately after shaking, increase of extinction at […] was measured at intervals of 30 seconds for 10 minutes. The enzyme activity was determined according to the following equation.
The experiment was repeated at least 3 times for each compound to obtain 50% inhibitory concentration (IC50). Moreover, in the same manner as mentioned above, acetylcholinesterase-inhibiting activity of distigmine was measured.

guinea pigs [3] = assay: Effect on the flow rate of urine in guinea pigs, single or combined use, Experimental Example 4; assay type: in vivo, Hartley male guinea pigs
From the text: Effect on the flow rate of urine by single or combined use of Compounds of Reference Examples, distigmine, prazosin, and tamsulosin was examined using Hartley male guinea pigs. Four to six Hartley male guinea pigs weighing about 350 g (SLC) were employed in each treated group. Guinea pigs were anesthetized with urethane, and held, and the bladder was exposed. Two polyethylene tubes (PE-100) were inserted into the bladder. One of the tubes was used in infusion of physiological saline, and the other used for measurement of the internal pressure of the bladder. Saline was infused continuously at a flow rate of 0.3 mL/min. The infusion was stopped at the time when intermittent urination was confirmed at least 3 times, and the whole saline in bladder was removed. Again, infusion was started, and stopped at the time when a rise of the pressure in bladder was confirmed immediately before urination. Excreted urine was weighed on an electronic force balance (HX-400, A&D). Analogue data of the internal pressure of the bladder and urine weight were input in an AD converter (MP-30, Biopac Systems) and the digital signal was analyzed by means of purpose-made software (Student lab pro 2.1.5, Biopac Systems). Sampling interval of the date was fixed at 0.1 second, and the value of urine weight was differentiated to determine the flow rate of urine. In order to remove data noise of the excretion volume and flow rate of urine, the data was adapted to a lowcut filter at 0.5 Hz.
Measurement was made 2 times before administration of the test compound, and then the test compound was administered intravenously. Again, measurement was made 10 minutes after administration of the test compound.
The average measured value before administration of the test compounds was regarded as the value before administration, and the rate of change of the values from the ante-administration to the post-administration was calculated to compare between the groups by means of the Dunnet's test.

T1 sequence (P22303 32-617 isoform P22303-2 limits assumed): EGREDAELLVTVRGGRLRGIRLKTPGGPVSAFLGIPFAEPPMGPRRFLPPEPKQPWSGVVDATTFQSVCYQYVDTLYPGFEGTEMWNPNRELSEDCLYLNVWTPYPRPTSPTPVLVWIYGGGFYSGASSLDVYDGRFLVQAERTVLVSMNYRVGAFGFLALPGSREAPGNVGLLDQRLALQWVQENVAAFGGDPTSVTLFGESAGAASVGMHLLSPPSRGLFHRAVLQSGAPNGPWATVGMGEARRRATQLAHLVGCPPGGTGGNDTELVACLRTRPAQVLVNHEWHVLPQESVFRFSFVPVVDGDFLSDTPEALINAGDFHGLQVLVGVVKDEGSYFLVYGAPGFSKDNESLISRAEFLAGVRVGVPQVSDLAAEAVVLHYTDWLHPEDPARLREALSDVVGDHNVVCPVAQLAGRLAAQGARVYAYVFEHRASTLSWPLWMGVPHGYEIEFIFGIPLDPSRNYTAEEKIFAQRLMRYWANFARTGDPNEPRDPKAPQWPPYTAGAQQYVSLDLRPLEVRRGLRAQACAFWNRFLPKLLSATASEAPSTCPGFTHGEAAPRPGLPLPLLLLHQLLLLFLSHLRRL

## CN(CCCCCCN(C)C(=O)Oc1ccc[n+](C)c1)C(=O)Oc1ccc[n+](C)c1 [Distigmine, reference compound]
Urinary bladder
  ED (2-fold bladder contraction AUC): 0.1 mg/kg
Guinea pigs [1]; conclusion from Table 7
  improvement of urination efficiency (in words): poor and it makes the efficiency worse at a high dose
Guinea pigs [1]; 0.1 mg/kg i.v. group
  Efficiency of Urination (%) Before adm.: 79.1 ± 5.7%
Guinea pigs [1]; 0.1 mg/kg i.v.
  Efficiency of Urination (%) After adm.: 90.9 ± 2.7%
  Improvement of Efficiency (%): 20.4%
Guinea pigs [1]; 0.3 mg/kg i.v. group (distigmine)
  Efficiency of Urination (%) Before adm.: 67.4 ± 4.3%
Guinea pigs [1]; 0.3 mg/kg i.v.
  Efficiency of Urination (%) After adm.: 75.3 ± 3.7%
  Improvement of Efficiency (%): 14.7%
Guinea pigs [1]; 1 mg/kg i.v. group (distigmine)
  Efficiency of Urination (%) Before adm.: 78.6 ± 6.7%
Guinea pigs [1]; 1 mg/kg i.v.
  Efficiency of Urination (%) After adm.: 67.8 ± 4.6%
  Improvement of Efficiency (%): −11.6%
Guinea pigs [1]; 3 mg/kg i.v. group (distigmine)
  Efficiency of Urination (%) Before adm.: 68.6 ± 7.0%
Guinea pigs [1]; 3 mg/kg i.v.
  Efficiency of Urination (%) After adm.: 48.1 ± 8.5%
  Improvement of Efficiency (%): −30.9** %
[2]
  IC50: 723 nM
Guinea pigs [3]; conclusion from Tables 8 and 9, alone and in combination with α-blockers
  improvement of the flow rate of urine (in words): poor and not enhanced even in combination with an α-blocker prazosin
Guinea pigs [3]; guinea pig, distigmine 1.0 mg/kg i.v. group, before administration (Table 8)
  Flow Rate (mL/sec) Ante-admn.: 0.25 ± 0.05 mL/s
Guinea pigs [3]; guinea pig, distigmine 1.0 mg/kg i.v., 10 minutes after administration (Table 8)
  Flow Rate (mL/sec) Post-admn.: 0.22 ± 0.05 mL/s
Guinea pigs [3]; guinea pig, distigmine 1.0 mg/kg i.v., 10 minutes after administration, control DMSO (Table 8)
  Improvement (%): −8.31 ± 11.13%
